Results: the NIST ThermoML archive (doi:10.1016/j.jct.2010.10.018)

Experiments:
[1] = 101.33 kPa, Liquid, Vibrating tube method
[2] = xn = mol fraction of the nth substance listed; settings: 101 kPa, Liquid, Vibrating tube method, x2 = 0

CC(C)(C)O [2-methylpropan-2-ol]
[1]
Settings	mass density [kg/m3]
299.15 K	779.48
303.15 K	775.39
308.15 K	770.15
313.15 K	764.84
318.15 K	759.46
323.15 K	753.94
333.15 K	742.7
348.15 K	725.06

O [water] + CC(C)(C)O
[2]
Settings	mass density [kg/m3]
274.15 K	999.899
275.15 K	999.94
276.15 K	999.964
277.15 K	999.972
278.15 K	999.964
279.15 K	999.94
280.15 K	999.901
281.15 K	999.848
282.15 K	999.781
283.15 K	999.699
323.15 K	988.03
333.15 K	983.191
348.15 K	974.838
